The values that follow come from paper PMC7516806, “Hybrid Antimicrobial Peptide Targeting Staphylococcus aureus and Displaying Anti-infective Activity in a Murine Model” (Frontiers in Microbiology, 2020).

SMILES strings stand for the structures. Positions of bridges follow the written chain, without caps; N, C: chain ends. Residues, ends and D or L forms follow the SMILES beside them.

One test relates to E. coli K88. As to conditions: MHB, 2–7 × 10^5 CFU/ml, 37°C, 24 h, no turbidity, at least three independent repeats. In short, it runs like this:
(§1)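 MIC values come from at least three independent experiments, each incubating peptide serial dilutions (made in 0.01% acetic acid plus 0.2% BSA) with an equal volume of bacteria at 2–7 × 10^5 CFU/ml in Mueller-Hinton broth for 24 h at 37°C.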

The next test concerns E. coli K99. As to conditions: MHB, 2–7 × 10^5 CFU/ml, 37°C, 24 h, no turbidity, at least three independent repeats. In short, it runs like this:
as §1

A further test has as its system S. aureus ATCC 29213. Briefly: SEM and TEM characterization of membrane damage. Format: cell-based, Staphylococcus aureus. The procedure: Bacterial membrane damage induced by the peptide was visualized using scanning electron microscopy (SEM). S. aureus ATCC 29213 was washed three times using PBS after growing to the mid-log phase and diluted to an OD600 = 0.2. The bacteria were incubated for 30 min with peptide, and the bacterial growth in PBS was used as the control. The cells were washed twice with PBS and fixed with 2.5% (w/v) glutaraldehyde at 4°C overnight. The bacterial cells were dehydrated with a graded series of ethanol (50, 70, 90, and 100%) for 10 min at each step. The samples were transferred to a mixture (v: v = 1:1) of alcohol and tert-butanol for 30 min and tert-butanol alone for 1 h. The dried bacterial specimens, which were obtained using a critical point dryer, were coated and visualized under a field emission scanning electron microscope (Hitachi S-4800, Japan).
The processing method of the samples for transmission electron microscopy (TEM) was the same as the treatment for SEM. The samples were then prefixed with 2.5% glutaraldehyde at 4°C overnight, post-fixed with osmium tetroxide for 70 min, and washed twice with PBS (pH 7.2). Subsequently, the samples were dehydrated in different concentrations of ethanol (50, 70, and 90%) for 8 min in series and 10 min in 100% ethanol twice and then transferred to a mixture (v:v = 1:1) of 100% ethanol and acetone for 10 min. […]

The next test concerns IL-6. Briefly: Cytokine ELISA in infected skin. Format: in vivo, ICR mice. Conditions: 24 h after treatment, P < 0.05. The procedure: (§2) To assess the antimicrobial activity of the peptide in vivo, a mouse model of subcutaneous infection was used ([Huang et al., 2011a]; [Omolo et al., 2017]). Female Institute for Cancer Research (ICR) mice (SPF, 20–25 g) were purchased from WeiTonglihua Co., Ltd. (Beijing, China), with eight animals per group. The mice were shaved on their backs and disinfected. S. aureus 29213 (100 μL) at a concentration of 1 × 10^8 CFU/mL was injected into the superficial skin of the mice. The mice were divided into four groups (n = 4), as follows: S. aureus + saline, S. aureus + S2 (80× MIC, 100 μL), S. aureus + vancomycin (Van) (80× MIC, 100 μL), and saline. S2, vancomycin, and saline were injected at the same site 1 h after infection. The mice were monitored over 24 h in an environmentally controlled room at 25 ± 1°C and 55 ± 5% relative humidity with a 12 h light/dark cycle.
(§3) The mice were treated as described above. Skin samples were treated according to the manufacturer’s instructions. The levels of tumor necrosis factor-alpha (TNF-α), interleukin-6 (IL-6), and granulocyte-macrophage colony-stimulating factor (GM-CSF) in infected skin were measured using enzyme-linked immunosorbent assay (ELISA) kits following the manufacturer’s instructions.

The subject of a further test is TNF-α. Put plainly: Cytokine ELISA in infected skin. The class given is in vivo, ICR mice. Conditions: 24 h after treatment, P < 0.05. The procedure: as §2, §3
The test system of a further test is GM-CSF. Briefly: Cytokine ELISA in infected skin. Format: in vivo, ICR mice. As to conditions: 24 h after treatment, P < 0.05. Here is the method:
as §2, §3

On to `CC(C)C[C@H](NC(=O)[C@H](CC(C)C)NC(=O)[C@H](Cc1c[nH]c2ccccc12)NC(=O)[C@H](Cc1c[nH]c2ccccc12)NC(=O)[C@H](Cc1c[nH]c2ccccc12)NC(=O)[C@H](CCCNC(=N)N)NC(=O)[C@@H]1CSSC[C@H](N)C(=O)N[C@@H](C)C(=O)N[C@@H](CO)C(=O)N[C@@H](Cc2ccc(O)cc2)C(=O)N[C@@H](Cc2ccccc2)C(=O)N1)C(N)=O` [Peptide S2] (H-CASYFCRWWWLL-NH2; disulfide 1-6; N-terminus assumed), for which, in the test on E. coli K88, the “MIC E. coli K88” value was greater than 64 µM. In the test with E. coli K99, the “MIC E. coli K99” value was greater than 64 µM. Besides, in the test with S. aureus ATCC 29213 (at its MIC for 30 min), the “morphology and membrane integrity by SEM” value is “wrinkles, disrupted membrane integrity, and leakage of cell contents”. For the same compound, in the test on S. aureus ATCC 29213 (treatment for 30 min), the “morphology and internal structure by TEM” value is “the membrane of S. aureus was damaged, and a substantial outflow of cytoplasm was observed”. Also, in the test on IL-6, the “IL-6 generation in infected skin” value is “suppressed”. Besides, the “TNF-α generation in infected skin” value in the test on TNF-α is on record as “suppressed”. Moreover, the “GM-CSF levels in infected skin versus control group and Van group” value in the test on GM-CSF was “significantly higher”.
